Columns and labels:
[1] = system: mosquito larvae; assay: Insecticidal test against mosquito larvae; details: in vivo
[2] = system: cotyledons harvested from etiolated cucumber seedlings; assay: Percent Efflux test (Efflux Experiment); format: tissue-based, Cucumis sativus L.; details: 100 nM concentration
Protocol: The enzyme-inhibiting agent is preferably one which has a high capacity for disrupting the plasmalemma of plant material. One test for that capacity is the Efflux Experiment described in the article by Halling and Peters in Plant Physiology, 84, 1114-5 (1987).
The Percent Efflux test employs cotyledons harvested from etiolated cucumber seedlings. In an initial step a mass of cotyledons is treated in the dark with an aqueous buffered solution containing a radiolabelled sugar. The amount of the sugar taken up by the cotyledons is then measured (by counting, as described below). […] The cotyledons, in contact with the aqueous solutions, are then exposed to light for 16 hours, and then separated from the aqueous solutions; the latter are then measured (by counting) to determine their contents of radiolabelled material. The results are expressed as Percent Efflux Which is calculated as follows, where S is the count of radiolabelled material (per cotyledon) taken up by the cotyledons in their initial treatment, ST is the count of radiolabelled material (per cotyledon) in the aqueous solution containing the compound to be tested, after the exposure to light and Sc is the count of radiolabelled material (per cotyledon) in the aqueous solution of the control, after exposure to light: [formula] […]

[3] = system: HeLa cells; assay: Proto IX production in HeLa cells, extract of cells alone (Example 7); format: cell-based; details: Homo sapiens, 100 uM agent, first formula (background-subtracted), read-out: increase in the amount of Proto IX relative to the control
Protocol: In a series of experiments along the lines of Examples 1 and 2, cultures of HeLa cells were incubated in the presence of 100 uM of various treating agents, listed below. The percentage given, next to each treating agent, indicates the increase in the amount of Proto IX produced in the presence of that treating agent relative to the amount produced by the control in the same experiment.
As in Examples 1 and 2, the data for this Example 7 were based on measurements of fluorescence (e.g. in counts per second, "cps"). In this Example, however, the measurements were made on an extract of the cells alone (in contrast to Examples 1 and 2 in which the disrupted cells and culture medium together were extracted), the fluorometric medium was the one described in Example 5 (containing 1% Tween-20, 50 mM Tris-HCl, 1 mM EDTA and 1 mM dithioerythritol, pH 8.5), and a cps measurement of the fluorometric medium per se was also made. In calculating the foregoing data for this Example, the following formula was used to calculate the percentage increases: [formula] where Ca is the counts per second for the sample resulting from treatment with the agent, Cc is the counts per second for the control sample, and Cm is the counts per second for the fluorometric medium per se (i.e. the background fluoroescence). On reviewing the data it was observed that Cc -Cm for this set of experiments was […] compared to Cm; for instance, individual measured values were 49025 and 52069 for Cc and 4295 for Cm. […] Accordingly, the data were recalculated using the formula: [formula] with the following results: 6a 336%; 5b 148%; 6c 154%; 6d 510%; 6e 320%; 6f 280%; 6g 329%; 6h 178%; 6i 171%; 6j 185%; 7a 118%; 7b 142%; 7c 103%; 7d 128%; 7e 173%; 7f 118%; 7q 155%; 7h 118%.

[4] = system: DBA/2 Ha mice with SMT-F subcutaneous tumors; assay: Proto IX content of tissues of tumor-bearing mice fed the agent (Example 6); format: in vivo
Method in brief: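 DBA/2 Ha mice bearing subcutaneous SMT-F tumors fed mash with 2000 ppm agent on Days 2-10, controls untreated; sacrifice Day 10 (one agent Day 7). Kidney, intestine, adrenal, liver and tumor extracted in acetone-0.1 N NH4OH (9:1); Proto IX by fluorescence (ex 400/em 630 nm) as CPS per g tissue.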

[5] = system: cabbage loopers; assay: Insecticidal test against cabbage loopers; details: in vivo
[6] = system: HeLa cells; assay: Proto IX in HeLa cells and culture medium, cell growth observations (Example 8); format: cell-based, human; details: 100 μM agent
Protocol: In a manner similar to Examples 1 and 2, cultures of HeLa cells were incubated in the presence of 100 μM of various treating agents, listed below. The agent was added in dilute solution in dimethylsulfoxide (DMSO),and the controls contained 0.2% DMSO v/v. After such incubation the culture medium was poured off, removing it from the cells, the cells were loosened from the culture flasks by addition of 0.25% W/v trypsin Which remained in contact With the cells for 20 minutes at 37° C., after which a fluorometric medium was added to the flask. The fluorometric medium was the same as that described in Example 7 except that its pH was 6.5; this medium also acted as an extractant. The resulting extract was analyzed for proto IX content. The separated culture medium was also analyzed fluorometrically for Proto IX content. The pairs of percentages given, next to each treating agent, indicate the amount of Proto IX produced in the presence of that treating agent relative to the amount produced by the control in the same experiment; the first number of each pair relates to the concentration of Proto IX in the culture medium and the second number relates to the concentration in the cells. [drawing 12]

[7] = system: chondrosarcoma; assay: Photodynamic treatment of chondrosarcoma in rats fed the agent (Example 9); format: in vivo, Sprague-Dawley rats; details: three rats, 2000 ppm in feed for 6 days, 630 nm light 270 J/cm^2
Protocol: Specifically, three Sprague-Dawley rats of average weight 120 g were placed on a diet of feed containing 2000 ppm of the agent for a period of 6 days. On day 3, chondrosarcoma was implanted into the right hind limb of each rat by injecting 0.3 mL of a suspension of the tumor cells (about one million tumor cells). On day 6 the right hind limb of each rat was shaven and depilated, the size of each tumor was measured, and the tumor area and surrounding skin were then exposed to non-thermal doses of 630 nm light for a total of 270 J/cm^2.
In another set of experiments, 20 of the rats were placed on the same diet as above (i.e. feed containing 2000 ppm of agent), provided ad libitum, for 10 days before the treatment with the light, and the injection of the tumor cell suspension was made after the animals had been on the diet for 7 days. Such an injection causes the formation of a tumor having a well defined vascular network within 1 to 2 days. At the time of the treatment with light the tumors had diameters of 5-8 mm and were free of evident necrosis.

[8] = 2000 ppm in feed Days 2-10, sacrificed Day 10 (6j Day 7)

Question: Which “activity against mosquito larvae” value [1] does the source give for `CCOC(=O)C(Cl)Cc1cc(-n2nc(C)n(C(F)F)c2=O)c(F)cc1Cl` (stereo not drawn) here?
Answer: The value was “active”.

Question: How did the total efflux [2] turn out when `C#CCOc1cc(-n2nc(C)n(C(F)F)c2=O)c(F)cc1Cl` [1-(4-chloro-2-fluoro-5-propargyloxyphenyl) -3-methyl-4-difluoromethyl-Δ^2-1,2,4-triazolin-5-one] was run?
Answer: Its total efflux is “over 90%”.

Question: What does the source list for `CCOC(=O)C(C)Oc1ccc(Oc2cc(-n3nc(C)n(C(F)F)c3=O)c(F)cc2Cl)cc1` (stereo not drawn) [Agent 6a]?
Answer: activation at 100 µM [3]: 337%; concentration of Proto IX in tissue, Adrenal ([4]; 2000 ppm in feed): 60 ug of Proto IX per gram of tis; concentration of Proto IX in tissue, Intestine ([4]; 2000 ppm in feed): 54 ug of Proto IX per gram of tis; concentration of Proto IX in tissue, Kidneys ([4]; 2000 ppm in feed): 99 ug of Proto IX per gram of tis; concentration of Proto IX in tissue, Liver ([4]; 2000 ppm in feed): 39 ug of Proto IX per gram of tis; concentration of Proto IX in tissue, Tumor ([4]; 2000 ppm in feed): 11 ug of Proto IX per gram of tis; Proto IX Mean Cps per gram, Adrenal [4, 8]: 6572 Cps per gram × 10^3; Proto IX Mean Cps per gram, Kidneys [4, 8]: 10817 Cps per gram × 10^3; Proto IX Mean Cps per gram, Liver [4, 8]: 4291 Cps per gram × 10^3; Proto IX Mean Cps per gram, Tumor [4, 8]: 1203 Cps per gram × 10^3; Weight of Tumor as excised [4, 8]: 143 mg; Proto IX Mean Cps per gram, Intestine ([4]; 2000 ppm in feed, samples diluted with 3 parts basic acetone to one part sample): 5870 Cps per gram × 10^3; activity against mosquito larvae [1]: active

Question: For `C#CCOc1cc(-n2nc(C)n(C(F)F)c2=O)c(F)cc1Cl` [Agent 7f], which “activity against cabbage loopers” value [5] is on record?
Answer: The value was “active”.

Question: What about the “activity against mosquito larvae” value [1] of the same molecule?
Answer: The value was “active”.

Question: What does the source list for `CS(=O)(=O)NC(=O)c1cc(Oc2ccc(C(F)(F)F)cc2Cl)ccc1[N+](=O)[O-]` [Compound 8c]?
Answer: activity in the test in Example 8 (Proto IX production) [6]: much less active than compound 6c; tumor regression on the day after light treatment [7]: did not produce any regression of the tumors

Question: `CCS(=O)(=O)Nc1cc(-n2nnn(CCCF)c2=O)c(F)cc1Cl` [Compound 8h] was tested. Which “activity against mosquito larvae” value [1] did it give?
Answer: Its value is “active”.

Question: For `CCOC(=O)C(C)OC(=O)c1cc(Oc2ccc(C(F)(F)F)cc2Cl)ccc1[N+](=O)[O-]` (stereo not drawn) [lactophen, 1-(carboethoxy)ethyl 5-(2-chloro-4-trifluoromethylphenoxy) -2-nitrobenzoate, reference compound], which total efflux [2] is on record?
Answer: The total efflux was “over 90%”.

— patent US5298502A, “Method and composition for photodynamic treatment and detection of tumors” (priority 1991, dated 1994)
